Test results from ChEMBL document CHEMBL1201862, “PubChem BioAssay data set” (2004).
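Compound exposure: 48 hours, 5 concentrations, 96-well plates. The concentration for 50% growth inhibition is given as GI50.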 Activity calls are given as the source filed them. Cut-off read from the data, not from the text of the source: active = GI50 up to about 1.1 µM and inactive = higher.

How the values were obtained:
Experiment in all cases: NCI anticancer screen, dose series, 48 h
[1] = tested on: DLD-1
[2] = tested on: DMS-114
[3] = tested on: DMS-273
[4] = tested on: LXFL 529
[5] = tested on: M19-MEL
[6] = tested on: SNB-78
[7] = tested on: XF498
[8] = tested on: HOP-18
[9] = tested on: RXF 631

Row | Structure (SMILES) | GI50 [1] | GI50 [2] | GI50 [3] | GI50 [4] | GI50 [5] | GI50 [6] | GI50 [7] | GI50 [8] | GI50 [9]
1 | C[Si](C)(C)C1(Sc2ccccc2)SCCCS1 | 32 µM (inactive) | 25.8 µM (inactive) | 35.2 µM (inactive) | 34.4 µM (inactive) | 34 µM (inactive) | 51.8 µM (inactive) | 28.4 µM (inactive) | – | –
2 | [N-]=[N+]=CC(=O)CCC(N)C(=O)O (configuration not stated) | 1.02 µM (active) | 1.87 µM (inactive) | 1.09 µM (active) | – | 1.59 µM (inactive) | 4.25 µM (inactive) | 22 µM (inactive) | 43.3 µM (inactive) | –
3 | Cc1ccc2c(c1)C1(C)OC(CC(N)C1O)O2 (configuration not stated) | > 100 µM (inactive) | > 100 µM (inactive) | > 100 µM (inactive) | – | > 100 µM (inactive) | – | – | > 100 µM (inactive) | –
4 | CC#C[C@@]1(O)CCCCC1O (some centres not stated) | – | > 100 µM (inactive) | > 100 µM (inactive) | – | > 100 µM (inactive) | > 100 µM (inactive) | > 100 µM (inactive) | > 100 µM (inactive) | > 100 µM (inactive)
5 | CCN(CC)CC(C)C(=O)/C=C/c1ccc(C)cc1 (configuration not stated) | 1.67 µM (inactive) | 1.77 µM (inactive) | 2.23 µM (inactive) | 1.76 µM (inactive) | 1.67 µM (inactive) | 4.59 µM (inactive) | 1.54 µM (inactive) | 10.5 µM (inactive) | –
6 | CCSCN(C)c1nc(N(C)C)nc(N(C)C)n1 | 83 µM (inactive) | 25.9 µM (inactive) | 38.6 µM (inactive) | 45.3 µM (inactive) | 64 µM (inactive) | > 100 µM (inactive) | – | > 100 µM (inactive) | –
7 | Cc1ccc(SSc2ccc(C)cc2C(=O)O)c(C(=O)O)c1 | > 100 µM (inactive) | – | > 100 µM (inactive) | > 100 µM (inactive) | > 100 µM (inactive) | > 100 µM (inactive) | – | – | > 100 µM (inactive)
8 | COc1ccc(C(=O)O)c(Br)c1OCc1ccccc1 | > 100 µM (inactive) | > 100 µM (inactive) | > 100 µM (inactive) | > 100 µM (inactive) | > 100 µM (inactive) | > 100 µM (inactive) | > 100 µM (inactive) | – | –
9 | CC(=O)[C@@]1(O)CC[C@H]2[C@@H]3C[C@H](C)C4=CC(=O)C=C[C@]4(C)[C@@]3(F)[C@@H](O)C[C@@]21C [FLUOROMETHOLONE] | > 100 µM (inactive) | > 100 µM (inactive) | > 100 µM (inactive) | > 100 µM (inactive) | > 100 µM (inactive) | > 100 µM (inactive) | > 53.5 µM (inactive) | – | > 100 µM (inactive)
10 | CCN(CC)CCCC(C)Nc1ccnc2cc(Cl)ccc12 (configuration not stated) [CHLOROQUINE PHOSPHATE] | > 100 µM (inactive) | 24.3 µM (inactive) | 28.1 µM (inactive) | 57.3 µM (inactive) | – | 29.9 µM (inactive) | 17.9 µM (inactive) | – | –
11 | CCc1cccc(C)c1NC(=O)CCc1nnc2s/c(=C\c3cccc4ccccc34)c(=O)n12 | 60 µM (inactive) | 36 µM (inactive) | 61.4 µM (inactive) | 73.3 µM (inactive) | > 100 µM (inactive) | > 100 µM (inactive) | > 100 µM (inactive) | – | > 100 µM (inactive)
12 | COc1cccc2c1[C@H]1CO[C@H]3C4C[C@H](C(=O)O)C([C@@H](C2)N13)N4C (some centres not stated) | 2.84 µM (inactive) | 2.22 µM (inactive) | 3.6 µM (inactive) | 2.27 µM (inactive) | 3.64 µM (inactive) | 3.72 µM (inactive) | 2.08 µM (inactive) | 6.12 µM (inactive) | > 10 µM (inactive)
13 | CC(=O)Oc1c2c(c(O)c3ccccc13)C(n1cnc3c(ncn3C3OC(CO)C4OC(C)(C)OC43)c1=N)CCC2 (configuration not stated) | 13.1 µM (inactive) | 6.44 µM (inactive) | 18.1 µM (inactive) | – | 11.6 µM (inactive) | 23 µM (inactive) | – | 20.3 µM (inactive) | –
14 | CC(C#N)c1cn(S(=O)(=O)c2ccccc2)c2ccccc12 (configuration not stated) | 55.3 µM (inactive) | 46.5 µM (inactive) | 45.6 µM (inactive) | 34.9 µM (inactive) | 42.5 µM (inactive) | – | > 100 µM (inactive) | – | –
15 | COc1ccc2ccc([Se]c3ccc4ccc(OC)cc4c3)cc2c1 | > 100 µM (inactive) | 64 µM (inactive) | > 100 µM (inactive) | > 100 µM (inactive) | > 100 µM (inactive) | 53.6 µM (inactive) | 43 µM (inactive) | 28.9 µM (inactive) | –
16 | CC(=O)Oc1c(C)n(CCCl)ccc1=O | > 100 µM (inactive) | > 100 µM (inactive) | > 100 µM (inactive) | > 100 µM (inactive) | > 100 µM (inactive) | > 100 µM (inactive) | > 100 µM (inactive) | > 100 µM (inactive) | 59.4 µM (inactive)
17 | COC1CC(OS(=O)(=O)c2ccc(C)cc2)C(OS(=O)(=O)c2ccc(C)cc2)C(COS(=O)(=O)c2ccc(C)cc2)O1 (configuration not stated) | 8.75 µM (inactive) | 2.92 µM (inactive) | 5.32 µM (inactive) | 5.77 µM (inactive) | 7.38 µM (inactive) | 5.46 µM (inactive) | – | 2.24 µM (inactive) | –
18 | COc1cc(C=O)cc(O)c1O | > 100 µM (inactive) | > 100 µM (inactive) | > 100 µM (inactive) | > 100 µM (inactive) | > 100 µM (inactive) | > 100 µM (inactive) | – | – | –
19 | Nc1ccc(C(=O)N/C(=C\C=C\c2ccco2)c2nc3c(O)nc(S)nc3[nH]2)cc1 | > 100 µM (inactive) | – | > 100 µM (inactive) | > 100 µM (inactive) | > 100 µM (inactive) | > 100 µM (inactive) | > 100 µM (inactive) | – | > 100 µM (inactive)
20 | O=C(Cc1nc2ccccc2o1)C(=O)Nc1ccccc1C(F)(F)F | > 100 µM (inactive) | > 100 µM (inactive) | > 100 µM (inactive) | > 100 µM (inactive) | > 100 µM (inactive) | > 100 µM (inactive) | > 100 µM (inactive) | – | > 100 µM (inactive)
21 | O/N=C(\C(=N/O)Nc1ccc(-c2ccc(NC(=N/O)/C(=N\O)c3ccccc3)cc2)cc1)c1ccccc1 | 22.3 µM (inactive) | – | 19.1 µM (inactive) | 15.7 µM (inactive) | 17.2 µM (inactive) | 30.8 µM (inactive) | 19.3 µM (inactive) | 13.6 µM (inactive) | –
22 | O=C(/C=C/c1ccccc1)CCN1CCOCC1 | 9.29 µM (inactive) | 9.25 µM (inactive) | 16.9 µM (inactive) | 2.78 µM (inactive) | 14.6 µM (inactive) | 19 µM (inactive) | 14.7 µM (inactive) | 17.7 µM (inactive) | –
23 | CC1=CC(/C=C(\C)CCCc2ccoc2)C2(OC(=O)C(C)=C2O)[C@H]2C1CC[C@@H]2C (some centres not stated) | 25.5 µM (inactive) | 22.1 µM (inactive) | > 10 µM (inactive) | 18.7 µM (inactive) | 29 µM (inactive) | 30.5 µM (inactive) | – | 14.2 µM (inactive) | –
24 | CC(=O)NC(CCCN(Cc1ccccc1)C(=O)N(C)N=O)C(=O)NCc1ccccc1 (configuration not stated) | > 100 µM (inactive) | > 100 µM (inactive) | > 100 µM (inactive) | > 100 µM (inactive) | > 100 µM (inactive) | > 100 µM (inactive) | > 100 µM (inactive) | – | > 100 µM (inactive)
25 | COC(=O)C(=O)C(CC(=O)Nc1cccc(C(F)(F)F)c1)C(=O)OC (configuration not stated) | > 100 µM (inactive) | > 100 µM (inactive) | – | > 100 µM (inactive) | > 100 µM (inactive) | > 100 µM (inactive) | – | – | –
26 | COC(=O)C(C#CCCCCC#CC(NC(=O)OCc1ccccc1)(C(=O)OC)C(F)(F)F)(NC(=O)OCc1ccccc1)C(F)(F)F (configuration not stated) | > 100 µM (inactive) | 28.1 µM (inactive) | – | > 100 µM (inactive) | > 100 µM (inactive) | > 100 µM (inactive) | – | > 100 µM (inactive) | > 100 µM (inactive)
27 | CCCCCc1cc(OC(=O)c2c(O)cc(OC)cc2CCCCC)cc(O)c1C(=O)O | 13 µM (inactive) | 14.7 µM (inactive) | 16.1 µM (inactive) | 16.5 µM (inactive) | 18.4 µM (inactive) | 30.9 µM (inactive) | 15.3 µM (inactive) | – | –
28 | C/C(=N\NC(=[Se])N(C)C)c1ccccn1 | < 0.01 µM (active) | < 0.01 µM (active) | 0.316 µM (active) | < 0.01 µM (active) | 0.339 µM (active) | 2.97 µM (inactive) | 0.198 µM (active) | 2.1 µM (inactive) | < 0.01 µM (active)
29 | Cc1cccc(C(C)(C)C)c1NC(=O)CC1Sc2ccccc2NC1=O (configuration not stated) | 57.4 µM (inactive) | 24.8 µM (inactive) | 32.9 µM (inactive) | 52.6 µM (inactive) | 66.8 µM (inactive) | – | – | 57.9 µM (inactive) | 36.7 µM (inactive)
